From paper PMC6345968, “Structural basis for species-selective targeting of Hsp90 in a pathogenic fungus” (Nature Communications, 2019)
Where two headings read alike, the source gives them in different places.

How the values were obtained:
[1] = target: T1, Hsp90 in C. albicans (SC5314) lysate (Candida albicans, UniProt P46598); assay: biochemical; assay type: binding; conditions: for FP signal: raw
T1 construct: endogenous in cells; host or cells: C. albicans SC5314 whole-cell lysate

[2] = system: Hsp90 in HEPG2 lysate; conditions: for FP signal: raw
[3] = SC5314 lysate, 0.457 nM compound
[4] = SC5314 lysate, 1.372 nM compound
[5] = SC5314 lysate, 4.115 nM compound
[6] = SC5314 lysate, 12.346 nM compound
[7] = SC5314 lysate, 37.037 nM compound
[8] = SC5314 lysate, 111.111 nM compound
[9] = SC5314 lysate, 333.333 nM compound
[10] = SC5314 lysate, 1000 nM compound
[11] = SC5314 lysate, 3000 nM compound

T1 sequence (P46598 whole entry): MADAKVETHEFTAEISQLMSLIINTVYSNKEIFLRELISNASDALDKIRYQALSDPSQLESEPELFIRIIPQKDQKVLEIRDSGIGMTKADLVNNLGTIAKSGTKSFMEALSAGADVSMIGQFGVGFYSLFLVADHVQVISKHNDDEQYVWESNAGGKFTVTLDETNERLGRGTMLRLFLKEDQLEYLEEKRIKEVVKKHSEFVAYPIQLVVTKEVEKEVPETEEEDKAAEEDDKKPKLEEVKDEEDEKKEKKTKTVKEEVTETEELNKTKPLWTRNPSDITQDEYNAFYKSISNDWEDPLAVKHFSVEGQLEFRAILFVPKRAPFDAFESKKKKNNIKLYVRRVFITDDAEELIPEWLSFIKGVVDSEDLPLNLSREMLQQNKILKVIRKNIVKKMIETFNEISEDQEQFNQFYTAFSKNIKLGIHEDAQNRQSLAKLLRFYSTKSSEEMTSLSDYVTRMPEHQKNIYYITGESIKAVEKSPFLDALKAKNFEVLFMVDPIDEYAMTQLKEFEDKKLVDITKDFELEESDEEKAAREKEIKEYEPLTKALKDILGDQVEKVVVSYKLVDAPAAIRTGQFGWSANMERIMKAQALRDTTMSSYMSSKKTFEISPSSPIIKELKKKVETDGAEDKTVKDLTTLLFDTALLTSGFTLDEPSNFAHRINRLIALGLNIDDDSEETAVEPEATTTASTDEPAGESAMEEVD

CCON=C1/C=C/C=C\[C@H]2O[C@H]2C[C@@H](C)OC(=O)c2c(O)cc(O)c(Cl)c2C1 [compound 333]
Ratio re. GdA ([1]; EC50 relative to GdA, SC5314 lysate): 0.3152
FP signal (raw) ([1]; SC5314 lysate, 0.457 nM): 168
FP signal relative to 0 nM [1, 3]: 0.8317
FP signal [1, 3]: 168
FP signal (raw) ([1]; SC5314 lysate, 1.372 nM): 155
FP signal relative to 0 nM [1, 4]: 0.7673
FP signal [1, 4]: 155
FP signal (raw) ([1]; SC5314 lysate, 4.115 nM): 114
FP signal relative to 0 nM [1, 5]: 0.5644
FP signal [1, 5]: 114
FP signal (raw) ([1]; SC5314 lysate, 12.346 nM): 81
FP signal relative to 0 nM [1, 6]: 0.401
FP signal [1, 6]: 81
FP signal (raw) ([1]; SC5314 lysate, 37.037 nM): 58
FP signal relative to 0 nM [1, 7]: 0.2871
FP signal [1, 7]: 58
FP signal (raw) ([1]; SC5314 lysate, 111.111 nM): 39
FP signal relative to 0 nM [1, 8]: 0.1931
FP signal [1, 8]: 39
FP signal (raw) ([1]; SC5314 lysate, 333.333 nM): 35
FP signal relative to 0 nM [1, 9]: 0.1733
FP signal [1, 9]: 35
FP signal (raw) ([1]; SC5314 lysate, 1000 nM): 36
FP signal relative to 0 nM [1, 10]: 0.1782
FP signal [1, 10]: 36
FP signal (raw) ([1]; SC5314 lysate, 3000 nM): 35
FP signal relative to 0 nM [1, 11]: 0.1733
FP signal [1, 11]: 35
EC50 ([1]; SC5314 lysate, not normalized, oxime panel experiment 220817, read-out: EC50): 5.36 nM
HepG2/SC5314 ([1]; ratio of GdA-normalized EC50s, human over fungal lysate): 1.134
HepG2/SC5314 ([1]; ratio of GdA-relative EC50 ratios, HepG2 over SC5314): 1.134
Ratio rel. GdA (HepG2) ([2]; EC50 / EC50 of GdA in HepG2 lysate): 0.3573
Ratio rel. GdA (HepG2) ([2]; EC50 relative to GdA, HEPG2 lysate): 0.3573
FP signal, Fxn Control ([2]; HEPG2 lysate, log concentration 0.137354 (1.372 nM)): 0.9198
FP signal, Fxn Control ([2]; HEPG2 lysate, log concentration 0.61437 (4.115 nM)): 0.7075
FP signal, Fxn Control ([2]; HEPG2 lysate, log concentration 1.09153 (12.346 nM)): 0.5047
FP signal, Fxn Control ([2]; HEPG2 lysate, log concentration 1.56864 (37.037 nM)): 0.3066
FP signal, Fxn Control ([2]; HEPG2 lysate, log concentration 2.04576 (111.111 nM)): 0.2075
FP signal, Fxn Control ([2]; HEPG2 lysate, log concentration 2.52288 (333.333 nM)): 0.1651
FP signal, Fxn Control ([2]; HEPG2 lysate, log concentration 3 (1000 nM)): 0.184
FP signal, Fxn Control ([2]; HEPG2 lysate, log concentration 3.47712 (3000 nM)): 0.2028
FP signal, Fxn Control ([2]; HEPG2 lysate, log concentration -0.340084 (0.457 nM)): 0.9575
FP signal (raw) ([2]; HepG2 lysate, 0.457 nM): 203
FP signal ([2]; HepG2 lysate, 0.457 nM compound): 203
FP signal (raw) ([2]; HepG2 lysate, 1.372 nM): 195
FP signal ([2]; HepG2 lysate, 1.372 nM compound): 195
FP signal (raw) ([2]; HepG2 lysate, 4.115 nM): 150
FP signal ([2]; HepG2 lysate, 4.115 nM compound): 150
FP signal (raw) ([2]; HepG2 lysate, 12.346 nM): 107
FP signal ([2]; HepG2 lysate, 12.346 nM compound): 107
FP signal (raw) ([2]; HepG2 lysate, 37.037 nM): 65
FP signal ([2]; HepG2 lysate, 37.037 nM compound): 65
FP signal (raw) ([2]; HepG2 lysate, 111.111 nM): 44
FP signal ([2]; HepG2 lysate, 111.111 nM compound): 44
FP signal (raw) ([2]; HepG2 lysate, 333.333 nM): 35
FP signal ([2]; HepG2 lysate, 333.333 nM compound): 35
FP signal (raw) ([2]; HepG2 lysate, 1000 nM): 39
FP signal ([2]; HepG2 lysate, 1000 nM compound): 39
FP signal (raw) ([2]; HepG2 lysate, 3000 nM): 43
FP signal ([2]; HepG2 lysate, 3000 nM compound): 43
EC50 ([2]; HepG2 lysate, oxime panel experiment 220817): 7.93 nM
